ChEMBL document CHEMBL2203230, “Compounds from the heartwood of Caesalpinia sappan and their anti-inflammatory activity” (Bioorg Med Chem Lett, 2012)

Experiments:
RAW264.7 [1] = assay: Antiinflammatory activity in mouse RAW264.7 cells assessed as inhibition of LPS-induced NO production after 24 hrs by Griess method; format: functional, cell-based; details: RAW264.7, 24 h
RAW264.7 [2] = assay: Antiinflammatory activity in mouse RAW264.7 cells assessed as reduction in LPS-induced iNOS expression incubated for 30 mins prior to LPS-challenge measured after 18 hrs; format: functional, cell-based

Row | Structure (SMILES) | IC50 (RAW264.7 [1]) [µM] | Activity (RAW264.7 [2])
1 | CC1(C)O[C@H]2c3ccc(O)cc3OC[C@@]2(Cc2ccc(O)cc2)O1 | > 50 | 
2 | Oc1ccc2c(c1)OC[C@@H]1Cc3cc(O)c(O)cc3[C@H]21 [BRAZILANE] | 36.7 | 
3 | COc1cc2c(cc1O)[C@@H]1c3ccc(O)cc3OC[C@]1(O)C2 | > 50 | 
4 | COc1cc(C[C@@]2(O)COc3cc(O)ccc3[C@@H]2OC)ccc1O [CAESALPINIAPHENOL F] | > 50 | 
5 | O=C(c1ccc(O)cc1O)[C@@H](O)Cc1ccc(O)cc1 | > 50 | 
6 | COc1cc(C[C@@]23COc4cc(O)ccc4[C@@H]2OC(C)(C)O3)ccc1O | > 50 | 
7 | Oc1ccc2c(c1)OC[C@]1(O)Cc3c(ccc(O)c3O)[C@H]21 [CAESALPINIAPHENOL E] | > 50 | 
8 | CO[C@H]1[C@]2(O)COC3=CC(=O)C=C[C@@]31c1cc(O)c(O)cc1C2 [CAESALPINJ] | > 50 | 
9 | COc1cc2c(cc1O)C[C@@]1(O)COc3cc(O)ccc3[C@@H]21 | > 50 | 
10 | COC1(OC)COc2cc(O)ccc2-c2cc(O)c(O)cc2C1 [PROTOSAPPANINADIMETHYLACETAL] | > 50 | 
11 | COc1cc(O)ccc1C(=O)/C=C/c1ccc(O)cc1 | 8.1 | Dose-dependent effect
12 | Oc1ccc2c(c1)OC[C@]1(O)Cc3cc(O)c(O)cc3[C@H]21 [BRAZILIN] | 43.5 | 
